{"source": "patent US6407115B1", "about": "“Hexa-cyclic compound” (Daiichi Pharmaceutical Co., Ltd., priority 1991, dated 2002)"}
{"smiles": "CC[C@@]1(O)C(=O)OCc2c1cc1n(c2=O)Cc2c-1nc1ccc(C)c3c1c2C(NC(C)=O)CN3", "note": "(stereo partly shown)", "melting point": "225 to 235 °C"}
{"smiles": "CC[C@@]1(O)C(=O)OCc2c1cc1n(c2=O)Cc2c-1nc1cccc3c1c2CC(S(=O)(=O)O)C3", "note": "(stereo partly shown)", "melting point": "190 to 200 °C (dec.)"}
{"smiles": "CC[C@@]1(O)C(=O)OCc2c1cc1n(c2=O)Cc2c-1nc1ccc(C)c3c1c2CCN3CCNC(C)=O", "melting point": "155 to 165 °C (dec.)"}
{"smiles": "CC[C@@]1(O)C(=O)OCc2c1cc1n(c2=O)Cc2c-1nc1ccc(C)c3c1c2CCN3CCN.Cl", "melting point": "210 to 230 °C (dec.)"}
{"smiles": "CC[C@@]1(O)C(=O)OCc2c1cc1n(c2=O)Cc2c-1nc1cccc3c1c2C(NC(C)=O)CCC3", "note": "(stereo partly shown)", "melting point": "203 to 206 °C (dec.)"}
{"smiles": "CC[C@@]1(O)C(=O)OCc2c1cc1n(c2=O)Cc2c-1nc1ccc(C)c3c1c2CCC3N1C(=O)c2ccccc2C1=O", "note": "(stereo partly shown)", "melting point": "285 to 290 °C (dec.)"}
{"smiles": "CC[C@@]1(O)C(=O)OCc2c1cc1n(c2=O)Cc2c-1nc1ccc(Cl)c3c1c2C(NC(C)=O)CN3", "note": "(stereo partly shown)", "melting point": "250 to 270 °C"}
